Data taken from US11312688B2, “Pyrazole compound” (Sumitomo Dainippon Pharma Co., Ltd., priority 2011, dated 2022).

Each compound was assayed against human serotonin transporter (h-SERT) (Homo sapiens (Human), UniProt P31645) (assay: [3H] citalopram binding assay to evaluate human serotonin reuptake inhibitory action (h-SERT binding assay)). Details: h-SERT binding inhibition constant Ki, Test Ex. 1.
Method: Citalopram Binding Assay to Evaluate Human Serotonin Reuptake Inhibitory Action
In the experiment, human serotonin transporter (h-SERT) was expressed in CHO cells (h-SERT/CHO). The cells were incubated with F12 containing 10% FCS, 500 μg/mL Geneticin and 100 U/mL penicillin-100 μg/mL streptmycin (all manufactured by Sigma Aldrich) in an incubator containing 5% CO2; detached and collected using a SERT buffer [50 mmol/L Tris-HCl comprising 120 mmol/L NaCl and 5 mmol/L KCl (pH=7.4)]; homogenized with a homogenizer manufactured by Teflon (trademark); and then centrifuged (50,000×g, 30 min, 4° C.). The precipitate was suspended again in the appropriate amount of SERT buffer (to give a membrane preparation), and stored at −80° C. until used. The amount of protein in the membrane preparation was assayed by Dye Reagent Concentrate (manufactured by BIO-RAD) using bovine serum albumin (manufactured by Sigma Aldrich) as a standard.
The [^3H] citalopram binding was measured according to the method disclosed in Owens M. J. et al., J. Pharm. […] The glass fiber filter was washed twice with 250 HL of the SERT buffer, placed in a plastic vial containing 4 mL of liquid scintillator (ACS-II, manufactured by Amersham) or Ecoscint A (manufactured by National Diagnostics), and the remaining radioactivity on the filter paper was assayed with a liquid scintillation counter.
Compound CNCc1cc(OCc2cc(Cl)ccc2F)n(CC2CCCCO2)n1 (single isomer, unassigned; (+)) [Example 475, (+)-1-{5-[(5-chloro-2-fluorobenzyl)oxy]-1-(tetrahydro-2H-pyran-2-ylmethyl)-1H-pyrazol-3-yl}-N-methylmethanamine] has a Ki of 9.2 nM.
Compound CNCc1cc(OCc2cc(Cl)ccc2F)n(CC2CCCCO2)n1 (single isomer, unassigned; (-)) [Example 474, (−)-1-{5-[(5-chloro-2-fluorobenzyl)oxy]-1-(tetrahydro-2H-pyran-2-ylmethyl)-1H-pyrazol-3-yl}-N-methylmethanamine] has a Ki of 11 nM.

The compounds below were run against T1, human serotonin 2C receptor (h-5-HT2C) (Homo sapiens (Human), UniProt P28335) (assay: [3H] mesulergine binding assay to evaluate affinity for human 5-HT2C receptor). Details: Test Ex. 2, h-5-HT2C/CHO membrane preparation, read-out: 5-HT2C receptor binding inhibition constant Ki.
T1 sequence (P28335 whole entry, looked up): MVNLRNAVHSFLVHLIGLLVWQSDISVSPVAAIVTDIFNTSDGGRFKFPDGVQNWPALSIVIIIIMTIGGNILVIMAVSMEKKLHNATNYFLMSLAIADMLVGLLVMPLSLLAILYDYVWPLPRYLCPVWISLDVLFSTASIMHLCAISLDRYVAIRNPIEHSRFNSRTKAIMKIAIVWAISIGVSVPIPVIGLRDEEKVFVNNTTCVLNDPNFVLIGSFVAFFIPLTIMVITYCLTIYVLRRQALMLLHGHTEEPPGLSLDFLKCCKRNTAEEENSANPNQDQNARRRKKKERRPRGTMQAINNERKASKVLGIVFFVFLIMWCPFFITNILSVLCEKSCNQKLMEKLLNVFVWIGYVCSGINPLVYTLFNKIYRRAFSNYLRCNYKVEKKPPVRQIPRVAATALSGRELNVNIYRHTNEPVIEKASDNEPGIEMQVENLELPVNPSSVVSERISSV
Method: Mesulergine Binding Assay to Evaluate Affinity for Human 5-HT2C Receptor
Preparation of the Cells and Membrane Preparations
In the experiment, human serotonin 2C receptor (h-5-HT2C) was expressed in CHO cells (h-5-HT2C/CHO). The cells were incubated with UltraCHO Lipuid (trademark) (manufactured by BioWhitakker) containing 1% FBS, 400 μg/mL Geneticin, 100 U/mL penicillin-100 μg/mL streptomycin (all manufactured by Sigma Aldrich) and 250 μg/mL Zeosin (manufactured by InvivoGen) in an incubator containing 5% CO2; detached and collected using 50 mmol/L Tris-HCl (pH=7.4); homogenized with a homogenizer manufactured by Teflon (trademark); and then centrifuged (48,000×g, 25 min, 4° C.). […]
A solution of 200 μL in total was prepared by mixing 50 μL of [^3H] mesulergine (manufactured by GE Healthcare) diluted with 50 mmol/L Tris-HCl (pH=7.4) (final concentration: about 2 nmol/L), 149 μL of the h-5-HT2C/CHO membrane preparation (protein amount: 20 μg/well), and 1 μL of the test drug dissolved in dimethylsulfoxide. […] The glass fiber filter was washed twice with 250 μL of 50 mmol/L Tris-HCl (pH=7.4), placed in a plastic vial containing 4 mL of liquid scintillator (ACS-II, manufactured by Amersham) or Ecoscint A (manufactured by National Diagnostics), and the remaining radioactivity on the filter paper was assayed with a liquid scintillation counter. […]
Compound CNCc1cc(OCc2cc(Cl)ccc2F)n(CC2CCCCO2)n1 (single isomer, unassigned; (+)) [Example 475, (+)-1-{5-[(5-chloro-2-fluorobenzyl)oxy]-1-(tetrahydro-2H-pyran-2-ylmethyl)-1H-pyrazol-3-yl}-N-methylmethanamine] has a Ki of 19 nM.
CNCc1cc(OCc2cc(Cl)ccc2F)n(CC2CCCCO2)n1 (single isomer, unassigned; (-)) [Example 474, (−)-1-{5-[(5-chloro-2-fluorobenzyl)oxy]-1-(tetrahydro-2H-pyran-2-ylmethyl)-1H-pyrazol-3-yl}-N-methylmethanamine] gave a Ki of 16 nM.

The compounds below were run against T1, human serotonin 2C receptor (h-5-HT2C) (assay: 5-HT2C receptor agonistic action assay (FLIPR Calcium 4, h-5-HT2C/CHO cells; agonistic / inverse agonistic action)). Details: not given.
Format: cell-based
Method: 3-1. The Cells and Inoculation Thereof
In the experiment, human serotonin 2C receptor (h-5-HT2C) was expressed in CHO cells (h-5-HT2C/CHO). The cells were incubated with UltraCHO Lipuid (trademark) (manufactured by BioWhitakker) containing 1% FBS, 400 μg/mL Geneticin, 100 U/mL penicillin-100 μg/mL streptomycin (all manufactured by Sigma Aldrich) and 250 μg/mL Zeosin (manufactured by InvivoGen) in an incubator containing 5% CO2. On the day before using the cells, they were detached and collected using 250 μg/mL Trypsin solution (manufactured by Nacalai Tesque), then inoculated in a 96 well flat clear bottom black polystyrene TC-treated microplates (manufactured by Corning) at 40000 cells/well/60 μL in an incubator containing 5% CO2 for 16 hours to 24 hours.
3-2. 5-HT2C Receptor Agonistic Action Assay
The 5-HT2C receptor agonistic action was evaluated with FLIPR Calcium 4 Assay kit (manufactured by Molecular Devices). In specific, to the cells inoculated in the plate were added Component A of FLIPR Calcium 4 Assay kit dissolved in 100 mL of HHBP buffer (1×Hanks buffer, 20 mmol/L HEPES, both manufactured by Gibco) at an amount of 40 μL/well, and the cells were incubated in an incubator containing 5% CO2 for 1 hour. Then, the cells were set in FLIPR TETRA (trademark) (manufactured by Molecular Devices), to the cells was added the test material diluted with HHBP buffer, 2.5 mmol/L Probenecid (manufactured by Sigma) (concentration after dilution: 10 μmol/L) at an amount of 20 μL/well, and the fluorescence was measured. Then, in order to evaluate the antagonistic action of the test material, 20 μL/well of 5-HT solution (manufactured by Sigma, final concentration: 0.1 nmol/L) was further added to the cells, and the fluorescence was measured.
The 5-HT2C receptor agonistic action of each test material was calculated as a rate of fluorescence enhancement wherein 100% was defined as a value when the cells were given 10 μmol/L 5-HT. Furthermore, the 5-HT2C receptor inverse agonistic action was calculated as a rate of fluorescence decay wherein −100% was defined as a value when the cells were given 10 μmol/L SB206553 (manufactured by Sigma Aldrich). A lower value of the 5-HT2C receptor agonistic action of the test material means that the material has a higher antagonistic action. In particular, when the value of the 5-HT2C receptor agonistic action of the test material is below 0%, the material has an inverse agonistic action for 5-HT2C receptor.
CNCc1cc(OCc2cc(Cl)ccc2F)n(CC2CCCCO2)n1 (single isomer, unassigned; (+)) [Example 475, (+)-1-{5-[(5-chloro-2-fluorobenzyl)oxy]-1-(tetrahydro-2H-pyran-2-ylmethyl)-1H-pyrazol-3-yl}-N-methylmethanamine] was tested, and the “5-HT2C receptor agonistic action” value was −95%.
For CNCc1cc(OCc2cc(Cl)ccc2F)n(CC2CCCCO2)n1 (single isomer, unassigned; (-)) [Example 474, (−)-1-{5-[(5-chloro-2-fluorobenzyl)oxy]-1-(tetrahydro-2H-pyran-2-ylmethyl)-1H-pyrazol-3-yl}-N-methylmethanamine], the “5-HT2C receptor agonistic action” value was −111%.
With CNCc1cc(OCc2cccc(OC)c2)n(CC2CCCCC2)n1 [Compound 42] the “5-HT2C receptor agonistic action” value was −106%.
In the case of CNCc1cc(OCc2ccc(F)cc2C)n(CC2CCCCO2)n1 (stereo not drawn) [Compound 108], the “5-HT2C receptor agonistic action” value is reported as −117%.
CNCc1cc(OCc2cc(Cl)ccc2F)n(CCC(C)OC)n1 (stereo not drawn) [Compound 405] was tested, and the “5-HT2C receptor agonistic action” value was −90%.
With CNCc1cc(OCc2cc(Cl)ccc2F)n(CC2(OC)CCCCC2)n1 [Compound 434] the “5-HT2C receptor agonistic action” value was −87%.
For CNCc1cc(OCc2ccccc2)n(CCCc2ccccc2)n1 [Example 3, 1-[5-(Benzyloxy)-1-(3-phenylpropyl)-1H-pyrazol-3-yl]-N-methylmethanamine], the “5-HT2C receptor agonistic action” value was −91%.
In the case of CNCc1cc(OCc2ccccc2)n(CC2CCCCC2)n1 [Example 5, 1-[5-(Benzyloxy)-1-(cyclohexylmethyl)-1H-pyrazol-3-yl]-N-methylmethanamine], the “5-HT2C receptor agonistic action” value is reported as −91%.
CNCc1cc(OCc2ccc(F)cc2F)n(CC2CCCC2)n1 [Example 144, 1-{1-(cyclopentylmethyl)-5-[(2,4-difluorobenzyl)oxy]-1H-pyrazol-3-yl}-N-methylmethanamine] was tested, and the “5-HT2C receptor agonistic action” value was −127%.
For CNCc1cc(OCc2ccccc2F)n(Cc2ccc(F)cc2)n1 [Example 218, 1-{1-(4-fluorobenzyl)-5-[(2-fluorobenzyl)oxy]-1H-pyrazol-3-yl}-N-methylmethanamine], the “5-HT2C receptor agonistic action” value was −111%.
In the case of CNCc1cc(OCc2cc(Cl)ccc2F)n(CCC(C)(C)OC)n1 [Example 275, 1-{5-[(5-chloro-2-fluorobenzyl)oxy]-1-(3-methoxy-3-methylbutyl)-1H-pyrazol-3-yl}-N-methylmethanamine], the “5-HT2C receptor agonistic action” value is reported as −88%.
With CNCc1cc(OCc2ccccc2)n(C(C)C2CCCC2)n1.Cl (stereo not drawn) [Example 288, 1-[5-(Benzyloxy)-1-(1-cyclopentylethyl)-1H-pyrazol-3-yl]-N-methylmethanamine Hydrochloride] the “5-HT2C receptor agonistic action” value was −80%.
CNCc1cc(OCc2ccccc2)n(C(CO)C2CCCCC2)n1.Cl (stereo not drawn) [Example 328, 2-{5-(Benzyloxy)-3-[(methylamino)methyl]-1H-pyrazol-1-yl}-2-cyclohexyl-ethanol Hydrochloride] was tested, and the “5-HT2C receptor agonistic action” value was −116%.
In the case of CNCc1cc(OCc2ccccc2)n(C(CF)C2CCCCC2)n1.Cl (stereo not drawn) [Example 330, 1-[5-(Benzyloxy)-1-(1-cyclohexyl-2-fluoroethyl)-1H-pyrazol-3-yl]-N-methylmethanamine Hydrochloride], the “5-HT2C receptor agonistic action” value is reported as −82%.
With CNCc1cc(OCc2cccc(Cl)c2)n(CC2CCc3ccccc3O2)n1.Cl (stereo not drawn) [Example 341, 1-{5-[(3-Chlorobenzyl)oxy]-1-(3,4-dihydro-2H-chromen-2-yl-methyl)-1H-pyrazol-3-yl}-N-methylmethanamine Hydrochloride] the “5-HT2C receptor agonistic action” value was −71%.
In the case of CCNCc1cc(OCc2cc(F)ccc2F)n(CC2CCCCC2)n1 [Example 344, N-({1-(Cyclohexylmethyl)-5-[(2,5-difluorobenzyl)oxy]-1H-pyrazol-3-yl}methyl)ethanamine], the “5-HT2C receptor agonistic action” value is reported as −82%.
In the case of Cl.NCc1cc(OCc2cc(F)ccc2F)n(CC2CCCC2)n1 [Example 347, 1-{1-(Cyclopentylmethyl)-5-[(2,5-difluorobenzyl)oxy]-1H-pyrazol-3-yl}methanamine Hydrochloride], the “5-HT2C receptor agonistic action” value is reported as −114%.
With CNCc1cc(OC(F)(F)c2ccccc2)n(CC2CCCCC2)n1.Cl [Example 349, 1-{1-(Cyclohexylmethyl)-5-[difluoro(phenyl)methoxy]-1H-pyrazol-3-yl}-N-methylmethanamine Hydrochloride] the “5-HT2C receptor agonistic action” value was −82%.
For CNCc1cc(OC(C)c2cccc(Cl)c2)n(CC2CCCCC2)n1.Cl (stereo not drawn) [Example 350, 1-{5-[1-(3-Chlorophenyl)ethoxy]-1-(cyclohexylmethyl)-1H-pyrazol-3-yl}-N-methylmethanamine Hydrochloride], the “5-HT2C receptor agonistic action” value was −92%.
CNCc1cc(SCc2ccccc2)n(Cc2ccccc2)n1.Cl [Example 355, 1-[1-Benzyl-5-(benzylsulfanyl)-1H-pyrazol-3-yl]-N-methylmethanamine Hydrochloride] was tested, and the “5-HT2C receptor agonistic action” value was −72%.
In the case of CNCc1cc(OCc2cc(F)c(F)cc2F)n(CCC2CC2)n1 [Example 426], the “5-HT2C receptor agonistic action” value is reported as −99%.
With CNCc1cc(OCc2cc(Cl)ccc2F)n(CCC2(O)CCCC2)n1.Cl [Example 435, 1-(2-{5-[(5-Chloro-2-fluorobenzyl)oxy]-3-[(methylamino)-methyl]-1H-pyrazol-1-yl}ethyl)cyclopentanol Hydrochloride] the “5-HT2C receptor agonistic action” value was −125%.
With CNCc1cc(OCc2cc(F)ccc2F)n(CCC(C)(C)F)n1.Cl [Example 481, 1-{5-[(2,5-Difluorobenzyl)oxy]-1-(3-fluoro-3-methylbutyl)-1H-pyrazol-3-yl}-N-methylmethanamine Hydrochloride] the “5-HT2C receptor agonistic action” value was −109%.
For CNCc1cc(OCc2cc(Cl)ccc2F)n(CCC(C)(C)F)n1.Cl [Example 482, 1-{5-[(5-Chloro-2-fluorobenzyl)oxy]-1-(3-fluoro-3-methylbutyl)-1H-pyrazol-3-yl}-N-methylmethanamine Hydrochloride], the “5-HT2C receptor agonistic action” value was −116%.
For “N-Benzyl-1-(cyclohexylmethyl)-3-[(methyl]-1H-pyrazol-5-amine Dihydrochloride [Example 357]”, the “5-HT2C receptor agonistic action” value was −120%.

Same assay, conditions: Test Ex. 3; test material 10 μmol/L; 100% = 10 μmol/L 5-HT, −100% = 10 μmol/L SB206553; below 0% = inverse agonistic action
With CNC(C)c1cc(OCc2cc(F)ccc2F)n(CCC2CCCC2)n1 (single isomer, unassigned; (+)) [Example 477, (+)-1-{1-(2-cyclopentylethyl)-5-[(2,5-difluorobenzyl)-oxy]-1H-pyrazol-3-yl}-N-methylethanamine] the “5-HT2C receptor agonistic action” value was −94%.
For CNC(C)c1cc(OCc2cc(F)ccc2F)n(CCC2CCCC2)n1 (single isomer, unassigned; (-)) [Example 476, (−)-1-{1-(2-cyclopentylethyl)-5-[(2,5-difluorobenzyl)-oxy]-1H-pyrazol-3-yl}-N-methylethanamine], the “5-HT2C receptor agonistic action” value was −72%.
With CCC(CC)n1nc(CNC)cc1OCc1ccc(F)cc1Cl [Example 253] the “5-HT2C receptor agonistic action” value was −86%.
For CNCc1cc(OCc2cc(Cl)ccc2F)n(CC(C)C)n1 [Example 256, 1-{5-[(5-chloro-2-fluorobenzyl)oxy]-1-(2-methylpropyl)-1H-pyrazol-3-yl}-N-methylmethanamine], the “5-HT2C receptor agonistic action” value was −97%.
CNCc1cc(OCc2cc(Cl)ccc2F)n(CC(C)(C)C)n1 [Example 259, 1-{5-[(5-chloro-2-fluorobenzyl)oxy]-1-(2,2-dimethylpropyl)-1H-pyrazol-3-yl}-N-methylmethanamine] was tested, and the “5-HT2C receptor agonistic action” value was −119%.
With CNCc1cc(OCc2cc(F)ccc2F)n(CCC(C)(C)C)n1 [Example 266, 1-{5-[(2,5-difluorobenzyl)oxy]-1-(3,3-dimethylbutyl)-1H-pyrazol-3-yl}-N-methylmethanamine] the “5-HT2C receptor agonistic action” value was −86%.
CNC(C)c1cc(OCc2cc(F)ccc2F)n(CCC2CCCC2)n1 (stereo not drawn) [Example 315, 1-{1-(2-cyclopentylethyl)-5-[(2,5-difluorobenzyl)oxy]-1H-pyrazol-3-yl}-N-methylethanamine] was tested, and the “5-HT2C receptor agonistic action” value was −84%.
